Measurements reported in ChEMBL document CHEMBL1128943, “Small peptidic aldehyde inhibitors of human rhinovirus 3C protease” (Bioorg Med Chem Lett, 1996).
pIC50: −log10 of the molar value. Where a SMILES comes first, the peptide text is derived from it. [ ]: non-standard residue; d: D form. The star is where a group is joined. Met(O2) = CS(=O)(=O)CC[C@H](N)C(=O)O; hPhe = N[C@@H](CCc1ccccc1)C(=O)O; Cbz = O=C(OCc1ccccc1)*; Boc = CC(C)(C)OC(=O)*

How the values were obtained:
HeLa = assay: Cytotoxic activity against HeLa cells using XTT assay.; assay type: functional; details: Homo sapiens, read-out: TC50 (the source's name)
Human rhinovirus sp. = assay: Antiviral activity against human rhinovirus-14 in HeLa cells; assay type: functional, organism-based

SMILES	pIC50 (Human rhinovirus sp.)	CC50 (HeLa) [µM]
NC(=O)CC[C@@H](C=O)NC(=O)[C@H](Cc1ccccc1)NC(=O)OCc1ccccc1	4.38	> 224
CC(=O)N[C@@H](CC(C)C)C(=O)N[C@@H](CC(C)C)C(=O)N[C@H](C=O)CCS(C)(=O)=O (Ac-Leu-Leu-[Met(O2)]-aldehyde)	4.09	> 224
CSCC[C@@H](C=O)NC(=O)[C@H](Cc1ccccc1)NC(=O)OC(C)(C)C (Boc-Phe-Met-aldehyde)	4.08	65.4
CC(C)(C)OC(=O)N[C@@H](Cc1ccccc1)C(=O)N[C@H](C=O)CCS(C)(=O)=O (Boc-Phe-[Met(O2)]-aldehyde)	4.15	148
CC(C)C[C@H](NC(=O)[C@@H](NC(=O)OC(C)(C)C)C(C)C)C(=O)N[C@@H](Cc1ccccc1)C(=O)N[C@H](C=O)CCC(N)=O (Boc-VLFQ-aldehyde)	3.40	0.6
CSCC[C@@H](C=O)NC(=O)[C@H](CC(C)C)NC(=O)OCc1ccccc1 (Cbz-Leu-Met-aldehyde)	4.33	83
CS(=O)(=O)CC[C@@H](C=O)NC(=O)[C@H](CCc1ccccc1)NC(=O)OCc1ccccc1 (Cbz-[hPhe]-[Met(O2)]-aldehyde)	4.09	162
CS(=O)(=O)CC[C@@H](C=O)NC(=O)C(Cc1ccccc1)NC(=O)OCc1ccccc1 (single isomer, unassigned)	< 3.65	> 224
CC(=O)N[C@@H](CC(C)C)C(=O)N[C@@H](CC(C)C)C(=O)N[C@H](C=O)CCCNC(=N)N [LEUPEPTIN]	< 3.65	> 224

Compounds with a higher pIC50 (Human rhinovirus sp.), results first:

pIC50 (Human rhinovirus sp.)	SMILES	CC50 (HeLa) [µM]
5.47	CS(=O)(=O)CC[C@@H](C=O)NC(=O)[C@H](Cc1ccccc1)NC(=O)OCc1ccccc1	> 224
4.63	CSCC[C@@H](C=O)NC(=O)[C@H](CC(C)C)NC(=O)[C@H](CC(C)C)NC(C)=O (Ac-Leu-Leu-Met-aldehyde)	37.1
4.41	CC(C)C[C@H](NC(=O)OCc1ccccc1)C(=O)N[C@H](C=O)CCS(C)(=O)=O (Cbz-Leu-[Met(O2)]-aldehyde)	> 224
5.01	CSCC[C@@H](C=O)NC(=O)[C@H](Cc1ccccc1)NC(=O)OCc1ccccc1 (Cbz-Phe-Met-aldehyde)	42.2
4.69	CSCC[C@@H](C=O)NC(=O)[C@H](CCc1ccccc1)NC(=O)OCc1ccccc1 (Cbz-[hPhe]-Met-aldehyde)	13.5
4.75	CCCC[C@@H](C=O)NC(=O)[C@H](CC(C)C)NC(=O)OCc1ccccc1 [CALPEPTIN]	22.1
